The source of these data is the supplement of paper PMC10307832.

Experiment in all cases: relative viability (nuclei count vs DMSO), 5 days (fraction); higher = more cells survive
Compound in test [1]: C1CNCCC1C2=CC(=NN2)C3=CC=NC=C3
The method in brief:
(§1)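 A plate was accepted only when its control CV was below 25% and the cells had doubled at least once. Viability is defined from nuclear counts as treated wells divided by vehicle wells, with the median taken across plates. That median covers lung cancer cell lines grown in 1536-well plates, dosed by pinning at five √10-spaced library-drug concentrations, and counted in MetaXpress from 4× Hoechst images after 5 days.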

Compound in test [2]: C[C@@H](N)c1ccc(C(=O)Nc2ccnc3[nH]ccc23)cc1
The gist of the method:
as §1

Compound in a further test: O[C@H]1CC[C@H](Nc2ncc3nc(Nc4c(F)cc(F)cc4F)n([C@H]4CCOC4)c3n2)CC1 [Tanzisertib]
The method in brief: as §1

Compound in test [3]: C[C@@H](N)c1ccc(C(=O)Nc2ccnc3[nH]ccc23)cc1 + Cc1nc(Nc2ncc(C(=O)Nc3c(C)cccc3Cl)s2)cc(N2CCN(CCO)CC2)n1 [Dasatinib] (partner 0.075 µM)
The method in brief: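 Lung cancer cell lines were pin-tool dosed in 1536-well plates on the day after seeding, with either a lone drug or a fixed anchor-drug dose plus five library-drug doses (not always all listed) in √10 steps. Nuclei were counted on 4× images after 5 days. Relative viability is the ratio of treated-well to vehicle-well nuclei counts, with each value a median of duplicate plates.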

As for NCI-H2087, the relative viability came out at 1 in test [1] (0.08 µM); 1.12 in test [1] (0.8 µM); 0.996 in test [1] (2.53 µM); 0.96 in test [1] (8 µM); 0.988 in test [2] (0.04 µM); 1.01 in test [2] (0.1265 µM). In addition, the relative viability worked out at 0.916 in test [2] (0.4 µM); 0.92 in test [2] (1.265 µM); 0.711 in test [2] (4 µM); 1.19 with Tanzisertib (0.08 µM); 0.969 with Tanzisertib (0.253 µM); 1.25 with Tanzisertib (0.8 µM). In addition, the relative viability with Tanzisertib (2.53 µM) worked out at 1.09; with Tanzisertib (8 µM), 0.916; in test [3] (first compound 0.04 µM) it was 0.956; in test [3] (first compound 0.1265 µM), 0.912; in test [3] (first compound 0.4 µM), 0.869; in test [3] (first compound 4 µM), 0.65.
Regarding NCI-H2126, the relative viability in test [1] (0.08 µM) stood at 0.944; in test [1] (0.8 µM), 0.969; in test [1] (2.53 µM), 1.06; in test [1] (8 µM), 1.02; in test [2] (0.04 µM) it was 1.06; in test [2] (0.1265 µM) it was 0.999. The relative viability came out at 0.994 in test [2] (0.4 µM); 0.889 in test [2] (1.265 µM); 1.1 in test [2] (4 µM); 1.01 in the test with Tanzisertib (0.08 µM); 1.08 with Tanzisertib (0.253 µM); 1.03 with Tanzisertib (0.8 µM). Also, the relative viability came out at 0.983 with Tanzisertib (2.53 µM); 0.893 in the test with Tanzisertib (8 µM); 0.72 in test [3] (first compound 0.04 µM); 0.664 in test [3] (first compound 0.1265 µM); 0.622 in test [3] (first compound 0.4 µM); 0.626 in test [3] (first compound 1.265 µM). For the same cell line, the relative viability in test [3] (first compound 4 µM) stood at 0.619.
NCI-H2170: the relative viability in test [1] (0.08 µM) is 0.834; in test [1] (0.8 µM), 0.978; in test [1] (2.53 µM), 0.939; in test [1] (8 µM), 0.984; in test [2] (0.04 µM) it was 1.1; in test [2] (0.1265 µM), 0.992. Further, the relative viability in test [2] (0.4 µM) was 1; in test [2] (1.265 µM), 0.926; in test [2] (4 µM), 0.936; in the test with Tanzisertib (0.08 µM) it was 1.11; in the test with Tanzisertib (0.253 µM), 0.96; with Tanzisertib (0.8 µM), 0.992. In addition, the relative viability worked out at 0.977 with Tanzisertib (2.53 µM); 0.887 with Tanzisertib (8 µM); 0.774 in test [3] (first compound 0.04 µM); 0.595 in test [3] (first compound 0.1265 µM); 0.639 in test [3] (first compound 0.4 µM); 0.518 in test [3] (first compound 1.265 µM). In test [3] (first compound 4 µM), the relative viability was found to be 0.528.
Turning to NCI-H2228, the relative viability in test [1] (0.08 µM) was 0.921; in test [1] (0.8 µM) it was 1.17; in test [1] (2.53 µM) it was 0.983; in test [1] (8 µM) it was 1.07; in test [2] (0.04 µM) it was 1.17; in test [2] (0.1265 µM), 1.05. The relative viability was determined as 1.13 in test [2] (0.4 µM); 1.03 in test [2] (1.265 µM); 0.814 in test [2] (4 µM); 1.19 with Tanzisertib (0.08 µM); 0.853 with Tanzisertib (0.253 µM); 1.02 in the test with Tanzisertib (0.8 µM). For the same cell line, the relative viability with Tanzisertib (2.53 µM) was determined as 1.06; with Tanzisertib (8 µM), 0.864; in test [3] (first compound 0.04 µM) it was 0.677; in test [3] (first compound 0.1265 µM), 0.505; in test [3] (first compound 0.4 µM) it was 0.546; in test [3] (first compound 1.265 µM), 0.482. Also, in test [3] (first compound 4 µM), the relative viability amounted to 0.436.
As to NCI-H2342, the relative viability in test [1] (0.08 µM) amounted to 0.919; in test [1] (0.8 µM) it was 0.965; in test [1] (2.53 µM), 1.03; in test [1] (8 µM) it was 1.16; in test [2] (0.04 µM) it was 1.03; in test [2] (0.1265 µM), 1.06. Moreover, the relative viability in test [2] (0.4 µM) is 1.04; in test [2] (1.265 µM), 1.21; in test [2] (4 µM), 0.927; with Tanzisertib (0.08 µM), 1.09; in the test with Tanzisertib (0.253 µM), 1.09; in the test with Tanzisertib (0.8 µM) it was 0.945. Besides, the relative viability was found to be 0.845 with Tanzisertib (2.53 µM); 0.959 in the test with Tanzisertib (8 µM); 0.342 in test [3] (first compound 0.04 µM); 0.357 in test [3] (first compound 0.1265 µM); 0.322 in test [3] (first compound 0.4 µM); 0.317 in test [3] (first compound 1.265 µM). For the same cell line, the relative viability in test [3] (first compound 4 µM) turned out to be 0.327.
Turning to NCI-H2347, the relative viability in test [1] (0.08 µM) was 1.01; in test [1] (0.8 µM), 0.869; in test [1] (2.53 µM), 1.08; in test [1] (8 µM), 1.12; in test [2] (0.04 µM), 0.971; in test [2] (0.1265 µM), 0.995. For the same cell line, the relative viability came to 1.14 in test [2] (0.4 µM); 0.816 in test [2] (1.265 µM); 0.956 in test [2] (4 µM); 1.11 with Tanzisertib (0.08 µM); 0.956 with Tanzisertib (0.253 µM); 1.06 with Tanzisertib (0.8 µM). Moreover, the relative viability in the test with Tanzisertib (2.53 µM) amounted to 1.08; with Tanzisertib (8 µM), 0.965; in test [3] (first compound 0.04 µM) it was 0.54; in test [3] (first compound 0.1265 µM) it was 0.314; in test [3] (first compound 0.4 µM) it was 0.374; in test [3] (first compound 4 µM), 0.574.
In the case of NCI-H2405, the relative viability was determined as 1.04 in test [1] (0.08 µM); 0.901 in test [1] (0.8 µM); 1.02 in test [1] (2.53 µM); 0.961 in test [1] (8 µM); 0.653 in test [2] (0.04 µM); 1.16 in test [2] (0.1265 µM). For the same cell line, the relative viability in test [2] (0.4 µM) is 0.998; in test [2] (1.265 µM), 0.569; in test [2] (4 µM) it was 0.376; in the test with Tanzisertib (0.08 µM), 1.12; in the test with Tanzisertib (0.253 µM), 1.02; with Tanzisertib (0.8 µM) it was 1.1. Besides, the relative viability in the test with Tanzisertib (2.53 µM) turned out to be 1.04; with Tanzisertib (8 µM) it was 0.695; in test [3] (first compound 0.04 µM), 0.186; in test [3] (first compound 0.1265 µM), 0.2; in test [3] (first compound 0.4 µM), 0.187; in test [3] (first compound 1.265 µM) it was 0.19. For the same cell line, the relative viability in test [3] (first compound 4 µM) came to 0.162.
Consider NCI-H3122, for which the relative viability came out at 0.978 in test [1] (0.08 µM); 1.03 in test [1] (0.8 µM); 1.02 in test [1] (2.53 µM); 0.988 in test [1] (8 µM); 0.997 in test [2] (0.04 µM); 1.04 in test [2] (0.1265 µM). In addition, the relative viability in test [2] (0.4 µM) stood at 0.975; in test [2] (1.265 µM), 1; in test [2] (4 µM), 0.894; with Tanzisertib (0.08 µM), 1.02; with Tanzisertib (0.253 µM) it was 0.964; with Tanzisertib (0.8 µM), 1.03. Besides, the relative viability came out at 1 in the test with Tanzisertib (2.53 µM); 0.936 with Tanzisertib (8 µM); 1.06 in test [3] (first compound 0.04 µM); 0.882 in test [3] (first compound 0.1265 µM); 0.919 in test [3] (first compound 0.4 µM); 0.455 in test [3] (first compound 1.265 µM). Moreover, the relative viability in test [3] (first compound 4 µM) worked out at 0.915.
